This note sets out measurements from patent US10766869B2, “Triazoles for the treatment of demyelinating dieases” (Vertex Pharmaceuticals Incorporated, priority 2015, dated 2020).

Read-outs that look alike come from different tables or passages of the source.

In experiment [1] the test system is C57BL/6 mice demyelinated with cuprizone. Nature of the experiment: In vivo mouse cuprizone assay (new myelin, MBP positive / MOG negative area). The note with it: for effect measured as new myelin generated in response to compound treatment compared to control with no added compound: Regimen A (QD or BID for 14 days via oral gavage), various doses; for effect (new myelin generated compared to control): Regimen A, oral gavage. The source says:
Assays for Detecting and Measuring Remyelination Properties of Compounds In Vivo Mouse Cuprizone Assay:
Cuprizone Feeding Protocol:
2 month old female C57BL/6 mice (Stock Number: 000664) were purchased from Jackson Labs and fed for 4-10 months with a 0.2% cuprizone chow (provided by Research Diets, Product # D10020701R, Description AIN-76A Rodent Diet with 0.2% cuprizone) using cuprizone purchased from Sigma (Cat #14690-100G). Chow was provided ad libitum, and refreshed every 4 days to ensure stability of the cuprizone. Mice were maintained on this diet for 4-10 months before initiation of the experiments.
1) 24 hours prior to the start of dosing, 6 to 10 mice were switched from cuprizone chow to normal chow (Picolab rodent diet 20 EXT IRR 5053, irradiated) without added cuprizone. These mice were maintained on normal chow throughout the course of dosing.
2) 6 to 10 mice per group were randomized into new cages such that mice that were housed in one cage during the cuprizone diet were not housed together in one dose group during the study.
3) Mice were dosed with compound in one of two regimens: Regimen A: mice were dosed QD or BID for 14 days via oral gavage. Regimen B: mice were dosed QD or BID for 14 days via IP injection. However, other dosing schedules and/or routes of administration may also be used.
4) On the last day of dosing, dried blood spots were collected at multiple time points following the last dose. Often this was 30 minutes, 2, 6 and 24 hours following the final dose on day 14 via the tail vein.
Perfusion and Sectioning:
1) The day after the last day of dosing, mice were transcardially perfused with 12 ml of PBS (Sigma, P4417) followed by 20 ml of 3.2% paraformaldehyde in PBS (Electron Microscopy Sciences #15714-S). The brains were removed via standard dissection techniques and each was postfixed in 3.2% paraformaldehyde (20 ml) for 24-48 hours at room temperature in sealed scintillation vials.
2) Serial 50 micron sections were collected through the anterior posterior extent of the brain, from just behind the olfactory bulb, through visual cortex using a vibrating microtome, the V-STAR (described in International Publication No. WO 2013/012799 and U.S. Pat. No. 8,967,024 both of which are incorporated herein by reference in their entirety). Sections were collected in phosphate buffered saline (PBS). Vibratome speed was set to 1.1 mm/s and amplitude was set to 0.8 mm.
3) A series of every 24th section was removed for staining yielding 5 sections per brain.
1) Tissue sections were stained using an automated system for processing blots (hereinafter the “blotinator”) (described in WO2011/087646 and U.S. Pat. Nos. 8,337,754 and 8,679,406 each of which is incorporated herein by reference in its entirety). Brain sections were placed in the blotinator plate and bathed in PBS. The blotinator applied primary antibodies (MOG and MBP together) and Hoechst nuclear stain for 12 hours at room temperature with constant shaking.
The following stains were diluted in blocking buffer (described below):
Hoechst nuclear stain (0.5 mg/ml)(bisBenzimide H 33342 trihydrochloride Sigma #33342).
Myelin basic Protein (MBP) antibody (Abcam Cat # ab7349) was diluted at a 1:750 ratio in blocking buffer).
Myelin Oligodendrocyte Glycoprotein (MOG) (R&D systems Cat # AF2439) was diluted at a 1:250 ratio in blocking buffer.
Antibodies were diluted in blocking buffer, which consisted of 0.3% Triton X-100 (Sigma Cat #234729), 0.02% Sodium Azide (Sigma Cat # S2002) and 8% fetal bovine serum in PBS (Sigma Cat # F2442).
2) The blotinator washed the samples 4 times for 5 minutes each with a wash buffer (0.2% Triton X-100 in PBS).
3) The blotinator applied secondary antibodies diluted in blocking buffer and incubated them for 2 hours with constant shaking.
Alexa 488 donkey anti-rat secondary (Life technologies Cat # A-21208) was diluted at 1:1000 in blocking buffer. […]

The subject of experiment [2] is primary rat mixed cortical cells. Nature of the experiment: In vitro myelination assay (MBP positive myelin strands, fold myelin pixels above background). Type of experiment: cell-based. The note with it: Rattus norvegicus, relative to baseline of no added compound; for fold induction at 1 µM: 1.0 μM compound; for fold induction at 10 µM: 10.0 μM compound. An outline of the steps:
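Myelination read as total MBP-immunopositive strand pixels per well, imaged at 10× after fixation on day 14 and expressed relative to untreated wells, at 1.0 and 10.0 μM. Cells: dissociated postnatal day 1 rat cortex, cultured two weeks with compound, re-dosed at days 6 and 10.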

[3] abbreviates: read-out: Fold myelin pixels above background.
[4] abbreviates: read-out: Fold myelin pixels above background, 1.0 μM.
The mark [5] stands for this setting: read-out: Fold myelin pixels above background, 10.0 μM.

Turning to `Fc1cc(F)cc(-n2cnc(Nc3cc(C(F)F)cc(N4CCN(C5COC5)CC4)n3)n2)c1` [Compound 512, 4-(difluoromethyl)-N-[1-(3,5-difluorophenyl)-1,2,4-triazol-3-yl]-6-[4-(oxetan-3-yl)piperazin-1-yl]pyridin-2-amine], the “effect measured as new myelin generated in response to compound treatment compared to control with no added compound” value in experiment [1] was “positive effect”. In addition, the “effect (new myelin generated compared to control)” value in experiment [1] (50 mpk) is reported as “positive effect”. Further, in experiment [2] (setting [3]), the fold induction at 1 µM fell in the range of 100 to 1000 and the fold induction at 10 µM is 100 to 1000.
On to `Cc1cc(Nc2ncn(-c3cccc(F)c3)n2)cc(N2CCN(C3COC3)CC2)c1` [Compound 406, 1-(3-fluorophenyl)-N-[3-methyl-5-[4-(oxetan-3-yl)piperazin-1-yl]phenyl]-1,2,4-triazol-3-amine], for which, in experiment [1], the “effect measured as new myelin generated in response to compound treatment compared to control with no added compound” value is listed as “positive effect”. Also, the “effect (new myelin generated compared to control)” value in experiment [1] (25 mpk) is “positive effect”. Further, in experiment [1] (50 mpk), the “effect (new myelin generated compared to control)” value was “positive effect”. For the same compound, in experiment [2] (setting [3]), the fold induction at 1 µM lay within 1000 to 10000 and the fold induction at 10 µM is not above 1.
In the case of `CCc1cc(Nc2ncn(-c3cc(F)cc(F)c3)n2)cc(N2CCN(C3COC3)CC2)c1` [Compound 107, 1-(3,5-difluorophenyl)-N-[3-ethyl-5-[4-(oxetan-3-yl)piperazin-1-yl]phenyl]-1,2,4-triazol-3-amine], the “effect measured as new myelin generated in response to compound treatment compared to control with no added compound” value in experiment [1] was “positive effect”. For the same compound, the “effect (new myelin generated compared to control)” value in experiment [1] (30 mpk) and in experiment [1] (90 mpk) was “positive effect” throughout. Moreover, in experiment [2] (setting [4]), the fold induction at 1 µM lay in the range of 1000 to 10000. For the same compound, in experiment [2] (setting [5]), the fold induction at 10 µM is 1000 to 10000.
With `Cc1cc(Nc2ncn(-c3cc(F)cc(F)c3)n2)cc(N2CC(N3CCOCC3)C2)c1` [Compound 485, 1-(3,5-difluorophenyl)-N-[3-methyl-5-(3-morpholinoazetidin-1-yl)phenyl]-1,2,4-triazol-3-amine], the “effect measured as new myelin generated in response to compound treatment compared to control with no added compound” value in experiment [1] is on record as “positive effect”. In addition, the “effect (new myelin generated compared to control)” value in experiment [1] (20 mpk) and in experiment [1] (30 mpk) was “positive effect” each time. Also, the fold induction at 1 µM in experiment [2] (setting [3]) fell in the range of 10 to 100. The fold induction at 10 µM in experiment [2] (setting [3]) was 1 to 10.
With `Cc1cc(Nc2ncn(-c3ccccc3)n2)cc(N2CCN(C)CC2)c1` [Compound 247, N-[3-methyl-5-(4-methylpiperazin-1-yl)phenyl]-1-phenyl-1,2,4-triazol-3-amine], the “effect measured as new myelin generated in response to compound treatment compared to control with no added compound” value in experiment [1] is reported as “positive effect”. Further, the “effect (new myelin generated compared to control)” value in experiment [1] (10 mpk), in experiment [1] (25 mpk) and in experiment [1] (50 mpk) was “positive effect” each time. The fold induction at 1 µM in experiment [2] (setting [4]) fell in the range of 100 to 1000. Besides, in experiment [2] (setting [5]), the fold induction at 10 µM was not above 1.
As to `Cc1cc(Nc2ncn(-c3cc(F)cc(F)c3)n2)cc(N2CCN(C3COC3)CC2)c1` [Compound 33, 1-(3,5-difluorophenyl)-N-[3-methyl-5-[4-(oxetan-3-yl)piperazin-1-yl]phenyl]-1,2,4-triazol-3-amine], in experiment [1], the “effect measured as new myelin generated in response to compound treatment compared to control with no added compound” value is “positive effect”. Also, the “effect (new myelin generated compared to control)” value in experiment [1] (10 mpk), in experiment [1] (25 mpk) and in experiment [1] (50 mpk) was “positive effect” each time. The fold induction at 1 µM in experiment [2] (setting [4]) was in the range of 100 to 1000. In addition, the fold induction at 10 µM in experiment [2] (setting [5]) is not above 1.
Take `CCc1cc(Nc2ncn(-c3cnccn3)n2)cc(N2CCN(C3COC3)CC2)c1` [Compound 48, N-[3-ethyl-5-[4-(oxetan-3-yl)piperazin-1-yl]phenyl]-1-pyrazin-2-yl-1,2,4-triazol-3-amine]: the “effect measured as new myelin generated in response to compound treatment compared to control with no added compound” value in experiment [1] was “positive effect”. The “effect (new myelin generated compared to control)” value in experiment [1] (30 mpk), in experiment [1] (50 mpk) and in experiment [1] (100 mpk) was “positive effect” throughout. In addition, the fold induction at 1 µM in experiment [2] (setting [4]) was 100 to 1000. For the same compound, the fold induction at 10 µM in experiment [2] (setting [5]) was in the range of 100 to 1000.
Turning to `Fc1cc(Nc2ncn(-c3ccnc(F)c3)n2)cc(N2CCN(C3COC3)CC2)c1` [Compound 783, N-[3-fluoro-5-[4-(oxetan-3-yl)piperazin-1-yl]phenyl]-1-(2-fluoro-4-pyridyl)-1,2,4-triazol-3-amine], in experiment [2] (setting [3]), the fold induction at 1 µM is not above 1 and the fold induction at 10 µM was in the range of 1 to 10.
With `Cc1cc(Nc2ncn(-c3cc(F)cc(F)c3)n2)cc(N2CCNC(C)C2)c1` (stereo not drawn) [Compound 362, 1-(3,5-difluorophenyl)-N-[3-methyl-5-(3-methylpiperazin-1-yl)phenyl]-1,2,4-triazol-3-amine], the fold induction at 1 µM in experiment [2] (setting [4]) lay within 100 to 1000. Besides, the fold induction at 10 µM in experiment [2] (setting [5]) was not above 1.
For `Fc1cc(Nc2ncn(-c3ccccc3F)n2)cc(N2CCCC2)c1` [Compound 83, 1-(2-fluorophenyl)-N-(3-fluoro-5-pyrrolidin-1-yl-phenyl)-1,2,4-triazol-3-amine], in that order: not above 1 and 10 to 100.
For the compound `Cc1cc(Nc2ncn(-c3cccc(C(F)(F)F)c3)n2)nc(N2CCN(C3COC3)CC2)c1` [Compound 578, 4-methyl-6-[4-(oxetan-3-yl)piperazin-1-yl]-N-[1-[3-(trifluoromethyl)phenyl]-1,2,4-triazol-3-yl]pyridin-2-amine], in experiment [2] (setting [3]), the fold induction at 1 µM was 1 to 10 and the fold induction at 10 µM lay in the range of 10 to 100.
As to `FC(F)(F)c1cc(Nc2ncn(-c3cnccn3)n2)cc(N2CCOCC2)c1` [Compound 357, N-[3-morpholino-5-(trifluoromethyl)phenyl]-1-pyrazin-2-yl-1,2,4-triazol-3-amine], the fold induction at 1 µM in experiment [2] (setting [4]) fell in the range of 1 to 10. Also, the fold induction at 10 µM in experiment [2] (setting [5]) lay within 1 to 10.
In the case of `CCN1CCN(c2cc(C)cc(Nc3ncn(-c4ccccc4)n3)c2)CC1` [Compound 274, N-[3-(4-ethylpiperazin-1-yl)-5-methyl-phenyl]-1-phenyl-1,2,4-triazol-3-amine], in experiment [2] (setting [4]), the fold induction at 1 µM lay within 1000 to 10000. For the same compound, the fold induction at 10 µM in experiment [2] (setting [5]) was 1 to 10.
For the compound `Cc1cc(Nc2ncn(-c3ccccc3)n2)cc(N2CCN(C3(C)COC3)CC2)c1` [Compound 436, N-[3-methyl-5-[4-(3-methyloxetan-3-yl)piperazin-1-yl]phenyl]-1-phenyl-1,2,4-triazol-3-amine], in experiment [2] (setting [3]), the fold induction at 1 µM lay within 1000 to 10000 and the fold induction at 10 µM is 100 to 1000.
